Measurements published in patent US9676798B2, “Cationic oligonucleotides, automated methods for preparing same and their uses” (CENTRE NATIONAL DE LA RECHERCHE SCIENTIFIQUE (CNRS), priority 2005, dated 2017).

Tested on: Hela cells
Assay: Penetration of cationic oligonucleotides into cells (fluorescence microscopy, propidium iodide)
Type: cell-based
Conditions: for Cell fluorescence after incubation (penetration into cells): 2 μM, four hours, serum-free MEM, no carrier
Procedure: Hela cells, grown in 10% (v/v) fetal calf serum containing MEM medium, were plated at 50-60×10^3 cells/well into 4-well chambered borosilicate Lab-Tek dishes one day prior to the experiment. Complete medium was replaced by 0.5 ml serum-free MEM medium. A 5′-cationic fluorescein-conjugated oligonucleotide F—S18N19 (where N19 is TCGAAGTACTCAGCGTAAG (SEQ ID NO:7)) formulation was prepared in sterile PBS. It was added to the cells to a final concentration of 2 μM. Four hours later, the medium was replaced by 1 ml of fresh serum-containing medium. A first picture was taken with a Zeiss axiovert 25 fluorescence microscope, equipped with a FITC filter (FIG. 14A, left). […] After 24 h, the medium was replaced with 1 ml of phenol red-free MEM medium. Propidium iodide (1 mM in water) was added to a final concentration of 10 μM.

Row | Substance | Cell fluorescence after incubation (penetration into cells) | Propidium iodide exclusion and retained fluorescence (after 24 h, propidium iodide 10 μM)
1 | F—N19: control fluorescein oligonucleotide without spermine, N19 is TCGAAGTACTCAGCGTAAG (5' fluorescein conjugate, no spermine, further chemistry not given here) [reference compound] | no fluorescence | –
2 | F—S18N19: 5′-cationic fluorescein-conjugated oligonucleotide, N19 is TCGAAGTACTCAGCGTAAG, 18 spermine residues (5' fluorescein and 18 spermine residues attached, backbone chemistry not given here) | All cells became fluorescent | majority of propidiumless healthy cells that were still fluorescent
